Each structure is given as a SMILES string.

One assay has as its target human M3 receptor (Homo sapiens (Human), UniProt P20309). The assay is described as follows: Radioligand (tritiated N-methylscopolamine) binding assay, M3. As to conditions: CHO cell membranes expressing human M3; 1.5 nM tritiated N-methylscopolamine; 90 min, 37° C.; read-out: Ki against M3 receptor (Table 21, M3). In outline: (§1)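 Compounds were tested at twelve concentrations ranging from 10 μM to […] against 1.5 nM radioligand on CHO cell membranes expressing each subtype. Incubation lasts 90 min at 37 °C in HEPES-buffered saline with Mg2+ and EDTA, pH 7.4, and filtration then separates bound radioligand.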

The next assay has as its target human M4 receptor (Homo sapiens (Human), UniProt P08173). Kind of assay: Radioligand (tritiated N-methylscopolamine) binding assay, M4. The following applies: Ki against the M4 receptor; membranes from CHO cells expressing human M4; tritiated N-methylscopolamine 1.5 nM; read-out: Ki. In outline: as §1
The next assay addresses human M1 receptor (Homo sapiens (Human), UniProt P11229). The assay is described as follows: Radioligand (tritiated N-methylscopolamine) binding assay, M1. As to conditions: CHO cell membranes expressing human M1; 1.5 nM tritiated N-methylscopolamine; 90 min, 37° C.; read-out: Ki against M1 receptor (Table 21, M1). In a few lines: as §1
Another assay concerns the target human M2 receptor (Homo sapiens (Human), UniProt P08172). The assay is described as follows: Radioligand (tritiated N-methylscopolamine) binding assay, M2. As to conditions: CHO cell membranes expressing human M2; 1.5 nM tritiated N-methylscopolamine; 90 min, 37° C.; read-out: Ki against M2 receptor (Table 21, M2). In a few lines:
as §1

Another assay has as its target human M5 receptor (Homo sapiens (Human), UniProt P08912). The assay is described as follows: Radioligand (tritiated N-methylscopolamine) binding assay, M5. The following applies: CHO cell membranes expressing human M5; 1.5 nM tritiated N-methylscopolamine; 90 min, 37° C.; read-out: Ki against M5 receptor (Table 21, M5). In outline: as §1

human M5 receptor, sequence (P08912 whole entry): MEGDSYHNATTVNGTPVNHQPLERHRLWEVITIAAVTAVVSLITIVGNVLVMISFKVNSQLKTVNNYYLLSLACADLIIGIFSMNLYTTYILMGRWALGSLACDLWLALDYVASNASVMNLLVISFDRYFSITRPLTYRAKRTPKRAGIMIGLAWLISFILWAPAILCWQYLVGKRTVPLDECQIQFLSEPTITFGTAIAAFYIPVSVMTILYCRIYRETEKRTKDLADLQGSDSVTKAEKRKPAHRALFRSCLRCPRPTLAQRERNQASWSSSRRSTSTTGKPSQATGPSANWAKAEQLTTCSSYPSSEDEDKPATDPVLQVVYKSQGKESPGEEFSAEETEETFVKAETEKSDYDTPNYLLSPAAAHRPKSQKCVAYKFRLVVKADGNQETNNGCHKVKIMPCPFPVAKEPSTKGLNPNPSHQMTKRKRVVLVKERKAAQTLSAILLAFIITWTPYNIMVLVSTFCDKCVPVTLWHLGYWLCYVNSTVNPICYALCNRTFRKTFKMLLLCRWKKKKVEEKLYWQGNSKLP
human M1 receptor, sequence (P11229 whole entry): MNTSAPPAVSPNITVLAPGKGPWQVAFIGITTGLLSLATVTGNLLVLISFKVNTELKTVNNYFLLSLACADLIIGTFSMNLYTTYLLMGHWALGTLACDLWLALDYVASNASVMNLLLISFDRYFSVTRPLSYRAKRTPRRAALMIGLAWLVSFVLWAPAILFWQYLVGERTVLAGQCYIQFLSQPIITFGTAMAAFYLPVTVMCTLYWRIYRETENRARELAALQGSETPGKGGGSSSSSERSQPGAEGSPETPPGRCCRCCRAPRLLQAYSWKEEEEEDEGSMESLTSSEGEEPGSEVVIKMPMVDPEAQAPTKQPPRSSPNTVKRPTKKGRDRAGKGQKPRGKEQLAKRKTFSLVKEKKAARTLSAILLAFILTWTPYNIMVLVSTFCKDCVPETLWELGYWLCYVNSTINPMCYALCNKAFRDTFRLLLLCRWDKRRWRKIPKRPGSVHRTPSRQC
human M3 receptor, sequence (P20309 whole entry): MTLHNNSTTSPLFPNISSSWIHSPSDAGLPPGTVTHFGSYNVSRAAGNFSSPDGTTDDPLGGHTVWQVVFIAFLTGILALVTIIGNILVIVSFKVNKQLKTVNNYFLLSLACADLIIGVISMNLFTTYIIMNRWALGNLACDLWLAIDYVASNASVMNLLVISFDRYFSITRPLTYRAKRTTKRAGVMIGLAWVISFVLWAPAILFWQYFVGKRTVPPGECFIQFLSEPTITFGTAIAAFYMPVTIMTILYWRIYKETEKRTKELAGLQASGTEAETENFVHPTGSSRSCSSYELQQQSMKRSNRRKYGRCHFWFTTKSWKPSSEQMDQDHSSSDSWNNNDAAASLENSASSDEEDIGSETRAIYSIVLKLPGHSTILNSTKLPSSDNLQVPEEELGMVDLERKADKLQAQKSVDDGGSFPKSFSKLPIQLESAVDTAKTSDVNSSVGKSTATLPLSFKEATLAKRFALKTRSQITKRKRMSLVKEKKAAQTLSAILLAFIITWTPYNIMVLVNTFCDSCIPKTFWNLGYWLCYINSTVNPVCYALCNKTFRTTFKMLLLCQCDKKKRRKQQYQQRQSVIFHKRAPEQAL
human M2 receptor, sequence (P08172 whole entry): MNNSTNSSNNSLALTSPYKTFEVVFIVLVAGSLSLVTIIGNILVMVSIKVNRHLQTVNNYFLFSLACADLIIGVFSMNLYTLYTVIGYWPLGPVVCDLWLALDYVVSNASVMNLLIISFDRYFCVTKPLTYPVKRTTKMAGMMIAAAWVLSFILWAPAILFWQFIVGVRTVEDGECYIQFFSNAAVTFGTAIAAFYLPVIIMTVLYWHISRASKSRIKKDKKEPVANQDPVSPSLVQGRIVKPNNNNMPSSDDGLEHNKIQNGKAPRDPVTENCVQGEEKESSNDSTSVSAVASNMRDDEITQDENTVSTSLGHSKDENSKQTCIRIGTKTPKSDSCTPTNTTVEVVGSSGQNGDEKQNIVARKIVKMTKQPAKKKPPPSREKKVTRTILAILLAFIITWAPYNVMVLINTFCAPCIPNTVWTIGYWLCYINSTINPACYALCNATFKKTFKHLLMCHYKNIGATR
human M4 receptor, sequence (P08173 whole entry): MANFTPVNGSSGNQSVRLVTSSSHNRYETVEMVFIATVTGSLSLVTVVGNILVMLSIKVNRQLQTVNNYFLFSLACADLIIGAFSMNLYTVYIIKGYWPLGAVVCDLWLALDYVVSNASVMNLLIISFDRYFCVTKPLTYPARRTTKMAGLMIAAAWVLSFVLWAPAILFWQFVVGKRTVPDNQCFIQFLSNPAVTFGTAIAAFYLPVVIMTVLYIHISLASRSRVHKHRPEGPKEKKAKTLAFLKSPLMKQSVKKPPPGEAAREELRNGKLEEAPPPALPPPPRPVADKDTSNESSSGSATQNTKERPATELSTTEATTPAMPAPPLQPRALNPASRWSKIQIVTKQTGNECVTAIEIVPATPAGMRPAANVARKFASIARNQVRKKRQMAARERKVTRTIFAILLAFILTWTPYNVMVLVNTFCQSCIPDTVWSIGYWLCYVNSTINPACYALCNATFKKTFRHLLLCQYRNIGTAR

For orientation: Ki means the equilibrium dissociation constant of an inhibitor or competing ligand from its target. Turning to `O=C(NCCC1CCN(Cc2ccccc2)CC1)C1CCN(c2ccc(F)c(F)c2)CC1` [10-21, N-[2-(1-benzylpiperidin-4-yl)ethyl]-1-(3,4-difluorophenyl)piperidine-4-carboxamide], the Ki was greater than 1000 nM on human M3 receptor; less than 10 nM at human M4 receptor; greater than 1000 nM on human M1 receptor; 100 to 1000 nM at human M2 receptor; greater than 1000 nM on human M5 receptor.
Regarding `O=C(NCCC1CCN(Cc2ccccc2)CC1)C1CCN(c2cc(F)cc(F)c2)CC1` [10-22, N-[2-(1-benzylpiperidin-4-yl)ethyl]-1-(3,5-difluorophenyl)piperidine-4-carboxamide], the Ki is greater than 1000 nM at human M3 receptor; less than 10 nM at human M4 receptor; greater than 1000 nM on human M1 receptor; 100 to 1000 nM at human M2 receptor; greater than 1000 nM at human M5 receptor.
Regarding `N#Cc1cc(OC(F)(F)F)cc(N2CCC(C(=O)NCCC3CCN(Cc4ccccc4)CC3)CC2)c1` [10-23, N-[2-(1-benzylpiperidin-4-yl)ethyl]-1-[3-cyano-5-(trifluoromethoxy)phenyl]piperidine-4-carboxamide], the Ki on human M3 receptor is greater than 1000 nM; at human M4 receptor, less than 10 nM; at human M1 receptor, 100 to 1000 nM; at human M2 receptor it was 10 to 100 nM; at human M5 receptor, greater than 1000 nM.
On to `COc1cc(C#N)cc(N2CCC(C(=O)NCCC3CCN(Cc4ccccc4)CC3)CC2)c1` [10-54, N-[2-(1-benzylpiperidin-4-yl)ethyl]-1-(3-cyano-5-methoxyphenyl)piperidine-4-carboxamide], for which the Ki was greater than 1000 nM at human M3 receptor; less than 10 nM on human M4 receptor; 100 to 1000 nM at human M1 receptor; 10 to 100 nM at human M2 receptor; greater than 1000 nM at human M5 receptor.
For `Cc1cc(N2CCC(C(=O)NCCC3CCN(Cc4ccccc4)CC3)CC2)ccc1OC(F)(F)F` [10-56, N-[2-(1-benzylpiperidin-4-yl)ethyl]-1-[3-methyl-4-(trifluoromethoxy)phenyl]piperidine-4-carboxamide], the Ki is 100 to 1000 nM on human M3 receptor; less than 10 nM at human M4 receptor; 100 to 1000 nM at human M1 receptor; 10 to 100 nM at human M2 receptor; greater than 1000 nM at human M5 receptor.
As for `N#Cc1cc(N2CCC(C(=O)NCCC3CCN(Cc4ccccc4)CC3)CC2)ccc1OC(F)(F)F` [10-57, N-[2-(1-benzylpiperidin-4-yl)ethyl]-1-[3-cyano-4-(trifluoromethoxy)phenyl]piperidine-4-carboxamide], the inhibition constant Ki is greater than 1000 nM at human M3 receptor; less than 10 nM on human M4 receptor; 100 to 1000 nM on human M1 receptor; 10 to 100 nM at human M2 receptor; greater than 1000 nM on human M5 receptor.
Take `N#Cc1cc(N2CCC(C(=O)NC[C@@H](O)C3CCN(Cc4ccccc4)CC3)CC2)ccc1F` [10-58, N-[(2S)-2-(1-benzylpiperidin-4-yl)-2-hydroxyethyl]-1-(3-cyano-4-fluorophenyl)piperidine-4-carboxamide]: the Ki at human M3 receptor is greater than 1000 nM; at human M4 receptor it was less than 10 nM; at human M1 receptor, greater than 1000 nM; on human M2 receptor, greater than 1000 nM; on human M5 receptor it was greater than 1000 nM.
Take `C[C@H]1CN(c2ccc(C#N)cn2)CCC1C(=O)NCCC1CCN(Cc2ccccc2)CC1` (stereo partly drawn) [10-79, (3R)-N-[2-(1-benzylpiperidin-4-yl)ethyl]-1-(5-cyanopyridin-2-yl)-3-methylpiperidine-4-carboxamide]: the Ki was greater than 1000 nM at human M3 receptor; less than 10 nM on human M4 receptor; 100 to 1000 nM at human M1 receptor; 10 to 100 nM on human M2 receptor; 100 to 1000 nM at human M5 receptor.
Regarding `C[C@H]1CN(c2ccc(C(F)(F)F)cn2)CCC1C(=O)NCCC1CCN(Cc2ccccc2)CC1` (stereo partly drawn) [10-80, (3R)-N-[2-(1-benzylpiperidin-4-yl)ethyl]-3-methyl-1-[5-(trifluoromethyl)pyridin-2-yl]piperidine-4-carboxamide], the inhibition constant Ki is 100 to 1000 nM on human M3 receptor; less than 10 nM on human M4 receptor; 10 to 100 nM on human M1 receptor; 10 to 100 nM on human M2 receptor; 100 to 1000 nM on human M5 receptor.
Consider `C[C@H]1CN(c2ncc(C(F)(F)F)cc2F)CCC1C(=O)NCCC1CCN(Cc2ccccc2)CC1` (stereo partly drawn) [10-81, (3R)-N-[2-(1-benzylpiperidin-4-yl)ethyl]-1-[3-fluoro-5-(trifluoromethyl)pyridin-2-yl]-3-methylpiperidine-4-carboxamide], for which the Ki at human M3 receptor is 10 to 100 nM; on human M4 receptor, less than 10 nM; at human M1 receptor, 10 to 100 nM; on human M2 receptor it was 10 to 100 nM; on human M5 receptor, 100 to 1000 nM.
Regarding `Cc1c(C(=O)NCCC2CCN(Cc3ccccc3)CC2)cnc2cc(-c3cccc(C(F)(F)F)c3)nn12` [17-1, N-[2-(1-benzylpiperidin-4-yl)ethyl]-7-methyl-2-[3-(trifluoromethyl)phenyl]pyrazolo[1,5-a]pyrimidine-6-carboxamide], the inhibitory constant (Ki) on human M3 receptor is greater than 1000 nM; at human M4 receptor it was less than 10 nM; on human M1 receptor, greater than 1000 nM; at human M2 receptor it was 100 to 1000 nM; on human M5 receptor, greater than 1000 nM.
With `Cc1c(C(=O)NCCC2(O)CCN(Cc3ccccc3)CC2)cnc2cc(-c3cccc(C(F)(F)F)c3)nn12` [17-3, N-[2-(1-benzyl-4-hydroxypiperidin-4-yl)ethyl]-7-methyl-2-[3-(trifluoromethyl)phenyl]pyrazolo[1,5-a]pyrimidine-6-carboxamide], the Ki was greater than 1000 nM on human M3 receptor; less than 10 nM at human M4 receptor; 100 to 1000 nM at human M1 receptor; 100 to 1000 nM at human M2 receptor; greater than 1000 nM at human M5 receptor.
With `Cc1c(C(=O)NC[C@@H](O)C2CCN(Cc3ccccc3)CC2)cnc2cc(-c3cccc(C(F)(F)F)c3)nn12` [17-5, N-[(2S)-2-(1-benzylpiperidin-4-yl)-2-hydroxyethyl]-7-methyl-2-[3-(trifluoromethyl)phenyl]pyrazolo[1,5-a]pyrimidine-6-carboxamide], the Ki on human M3 receptor was greater than 1000 nM; on human M4 receptor, less than 10 nM; at human M1 receptor, 100 to 1000 nM; on human M2 receptor it was 10 to 100 nM; at human M5 receptor it was greater than 1000 nM.
Take `Cc1c(C(=O)NC[C@H](O)C2CCN(Cc3ccccc3)CC2)cnc2cc(-c3cccc(C(F)(F)F)c3)nn12` [17-6, N-[(2R)-2-(1-benzylpiperidin-4-yl)-2-hydroxyethyl]-7-methyl-2-[3-(trifluoromethyl)phenyl]pyrazolo[1,5-a]pyrimidine-6-carboxamide]: the Ki was greater than 1000 nM on human M3 receptor; less than 10 nM on human M4 receptor; greater than 1000 nM on human M1 receptor; 100 to 1000 nM on human M2 receptor; greater than 1000 nM on human M5 receptor.
Take `Cc1c(C(=O)NCCC2CCN(Cc3ccccc3)CC2)cnc2cc(-c3ccc(F)cc3F)nn12` [18-1, N-[2-(1-benzylpiperidin-4-yl)ethyl]-2-(2,4-difluorophenyl)-7-methyl-pyrazolo[1,5-a]pyrimidine-6-carboxamide]: the Ki at human M3 receptor was greater than 1000 nM; on human M4 receptor, less than 10 nM; on human M1 receptor, greater than 1000 nM; at human M2 receptor it was 10 to 100 nM; at human M5 receptor, greater than 1000 nM.
With `Cc1c(C(=O)NCCC2CCN(Cc3ccccc3)CC2)cnc2cc(-c3ccc(F)cc3)nn12` [18-4], the Ki was greater than 1000 nM at human M3 receptor; less than 10 nM at human M4 receptor; 100 to 1000 nM at human M1 receptor; 100 to 1000 nM at human M2 receptor; greater than 1000 nM on human M5 receptor.
Regarding `Cc1c(C(=O)NCCC2CCN(Cc3ccccc3)CC2)cnc2cc(-c3cc(F)cc(F)c3)nn12` [18-5], the Ki was greater than 1000 nM at human M3 receptor; less than 10 nM on human M4 receptor; greater than 1000 nM on human M1 receptor; 100 to 1000 nM on human M2 receptor; greater than 1000 nM on human M5 receptor.
`Cc1c(C(=O)NCCC2CCN(Cc3ccccc3)CC2)cnc2cc(-c3cccc(OC(F)(F)F)c3)nn12` [18-16]: the Ki is greater than 1000 nM at human M3 receptor; less than 10 nM at human M4 receptor; greater than 1000 nM at human M1 receptor; 100 to 1000 nM at human M2 receptor; greater than 1000 nM at human M5 receptor.
As to `Cc1c(C(=O)NCCC2CCN(Cc3ccccc3)CC2)cnc2cc(-c3cc(F)c(F)c(F)c3)nn12` [18-17], the inhibition constant Ki at human M3 receptor was greater than 1000 nM; at human M4 receptor, less than 10 nM; on human M1 receptor, greater than 1000 nM; at human M2 receptor, 100 to 1000 nM; on human M5 receptor, greater than 1000 nM.
As to `C[C@H]1CN(c2ncc(C(F)(F)F)cn2)CCC1C(=O)NCCC1CCN(Cc2ccccc2)CC1` (stereo partly drawn) [20-2, (3R)-N-[2-(1-benzylpiperidin-4-yl)ethyl]-3-methyl-1-[5-(trifluoromethyl)pyrimidin-2-yl]piperidine-4-carboxamide], the Ki at human M3 receptor is 10 to 100 nM; at human M4 receptor, less than 10 nM; at human M1 receptor, 10 to 100 nM; on human M2 receptor, 10 to 100 nM; at human M5 receptor, 100 to 1000 nM.
On to `C[C@H]1CN(c2ncc(Cl)cn2)CCC1C(=O)NCCC1CCN(Cc2ccccc2)CC1` (stereo partly drawn) [20-3, (3R)-N-[2-(1-benzylpiperidin-4-yl)ethyl]-1-(5-chloropyrimidin-2-yl)-3-methylpiperidine-4-carboxamide], for which the Ki on human M3 receptor is 100 to 1000 nM; at human M4 receptor it was less than 10 nM; at human M1 receptor it was 100 to 1000 nM; on human M2 receptor it was 100 to 1000 nM; at human M5 receptor, greater than 1000 nM.
For `C[C@@H]1CN(c2ncc(C#N)cn2)C[C@H](C)N1C(=O)NCCC1CCN(CC[Si](C)(C)C)CC1` [21-7], the Ki on human M3 receptor was 10 to 100 nM; on human M4 receptor it was less than 10 nM; at human M1 receptor it was 10 to 100 nM; at human M2 receptor, less than 10 nM; at human M5 receptor it was 100 to 1000 nM.

For the origin of these results see patent US11033539B2, “Compounds of formulas (VII), (VIII), (IX), (XI), (XII), (XIII), and (XIV) as muscarinic receptor 4(M4) antagonists for treating neurological diseases” (Neurocrine Biosciences, Inc., priority 2015, dated 2021).
